Legend:
[1] = test system: CBP^+/− mutant mice; details: cited from earlier work
[2] = Cardiovascular and respiratory function in anesthetized dogs; type: in vivo; details: anesthetized Beagle dogs; 400, 800 and 1,200 mg/kg/day via jugular vein infusion; compared to the vehicle control group
Method: The effects of 3-(3,4-dimethoxy-phenyl)-3-(1-oxo-1,3-dihydro-isoindol-2-yl)-propionamide on cardiovascular and respiratory function are investigated in anesthetized dogs. Two groups of Beagle dogs (2/sex/group) are used. One group receives three doses of vehicle only and the other receives three ascending doses of 3-(3,4-dimethoxy-phenyl)-3-(1-oxo-1,3-dihydro-isoindol-2-yl)-propionamide (400, 800, and 1,200 mg/kg/day). In all cases, doses of 3-(3,4-dimethoxy-phenyl)-3-(1-oxo-1,3-dihydro-isoindol-2-yl)-propionamide or vehicle are successively administered via infusion through the jugular vein separated by intervals of at least 30 minutes.

[3] = test system: C57BL/6 mice injected with MPTP; details: cited from earlier work
[4] = test system: rat mesencephalonic neurons; details: in the presence of the adenylate cyclase activator forskolin; cited from earlier work
[5] = test system: patients with PD; details: cited from earlier work

SMILES	long-term memory defects [1]	dopamine depletion in the striatum [3]	loss of tyrosine hydroxylase-immunopositive neurons in the substantia nigra [3]	uptake of dopamine [4]	other results
COc1ccc([C@H]2CNC(=O)[C@H](Cc3cccc(C)c3)C2)cc1OC1CCCC1 [HT0712]	abolished the long-term memory defects	–	–	–	–
COc1ccc(C(CC(N)=O)N2Cc3ccccc3C2=O)cc1OC (centres unmarked) [3-(3,4-Dimethoxy-phenyl)-3-(1-oxo-1,3-dihydro-isoindol-2-yl)-propionamide]	–	–	–	–	cardiovascular and respiratory changes [2]: minimal at all doses
CCCCOc1cc(CC2CNC(=O)N2)ccc1OC (centres unmarked) [Ro-20 1724]	–	reduce dopamine depletion in the striatum	reduce loss of tyrosine hydroxylase-immunopositive neurons	stimulate uptake of dopamine	–
COCCOc1cc(OCCOC)cc(-c2nc(C)cc3cc(OC)c(OC)cc23)c1 [SDZ-MNS 949]	–	reduce dopamine depletion in the striatum	reduce loss of tyrosine hydroxylase-immunopositive neurons	stimulate uptake of dopamine	–
COc1ccc(C2CNC(=O)C2)cc1OC1CCCC1 (centres unmarked) [Rolipram]	abolished the long-term memory defects	–	–	–	deterioration of the therapeutic action of dopamine against Lisuride ([5]; 3 mg per day, patients with PD already under treatment): no significant deterioration; dose-limiting side effect ([5]; Phase II trials of PD): nausea

— patent publication US20070190070A1, “Methods of using and compositions comprising selective cytokine inhibitory drugs for the treatment and management of disorders of the central nervous system” (priority 2004, published 2007)
